Read-outs that look alike come from different tables or passages of the source. Values belong to the compound of their own block, whether it stands above or below them.
Tests used:
[1] = Pharmacokinetic study of 435(S) and other representative compounds in chimps after oral dosing (Example 40); format: in vivo; conditions: species named in label measured in plasma
Description: 435(S) and representative compounds 121(S), 137(S), 421(S) and 437(S) were separately dissolved in warm (65° C.) water at a concentration [[of 10 mg/mL]]. The same protocol described for Example 39 was then followed for each representative compound.

in vivo = assay: in vivo; design: species or system male beagle dogs; conditions: dog, po, 2.5 mg/kg
Description: Metabolism of the title compounds were studied following oral administration to male beagle dogs. Blood samples were removed from dosed dogs at various time points and plasma isolated therefrom. The plasma samples were used for the determination of plasma drug levels by LC-MS/MS (liquid chromatography with tandem mass spectrometry) for estimating pharmacokinetic parameters.
Compound 409 and pentoxifylline were dissolved separately in saline to a concentration of 4 mg/mL. A 1:1 (v/v) mixture of the two solutions was prepared to yield a solution having a final concentration of 2 mg/mL of both Compound 409 and pentoxifylline.
Two male beagle dogs were fasted overnight and then orally dosed via gavage with 2.5 mg/kg of Compound 409 and pentoxifylline using the mixture described above. Blood samples (1.5-2 mL) were collected via the femoral vein at 0 min (pre-dose), 15 min, 30 min, 45 min, 1 hr, 1.5 hr, 2 hr, 3 hr, 4 hr, 6 hr, 8 hr, 10 hr, 12 hr, 16 hr and 24 hr post-dose. Blood was stored on ice prior to centrifugation to obtain plasma samples. Centrifugation took place within 1 hour of blood collection to harvest plasma (maximum volume). The plasma was decanted immediately and frozen/stored at −70° C. until analysis.

[2] = Pharmacokinetic study of pentoxifylline and Compound 435(S) in chimps after oral dosing (Example 38); format: in vivo; conditions: in vivo, po, 75 mg
Description: Pentoxifylline and Compound 435(S) were separately dissolved in warm (65° C.) saline at a concentration at 10 mg/mL. A 1:1 mixture of the two compounds was then prepared containing a final concentration of 5 mg/mL of each compound and the mixture was then sterile filtered through a 0.2-μm filter.
Two chimps (one male and one female) were used in each of the oral and intravenous studies. Animals were fasted overnight prior to administration of compounds. All animals were sedated with ketamine (approximately 10 mg/kg) and/or telazol (approximately 5 mg/kg) prior to dosing. Intravenous administration was achieved by IV infusion of 75 mg of each compound (15 mL total dosing solution) over 10 minutes. Oral administration was achieved by oral gavage of a single 75 mg dose of each compound (15 mL total dosing solution). Blood samples (6 mL) were collected from the dosed chimps at various times prior to and after dosing. For intravenous administrations blood samples were collected at 0 min (preinfusion), 5 min, 9.5 min (immediately before the end of the infusion), then 6, 15, 30 and 45 min, and 1, 2, 4, 6, 8, 10 and 12 hr after the infusion is stopped. For oral administrations, blood samples were collected at 0 min (predose), 15 and 30 min, and 1, 1.5, 2, 4, 6, 8, 10 and 12 hr postdose.
Blood samples were placed in tubes containing sodium heparin, mixed and stored on ice until centrifuged. Within 30 minutes of collection, plasma was isolated by centrifuging the blood samples and removing an aliquot (200 μL) of the resulting plasma. Each 200-μL aliquot of plasma was mixed with 400 μL acetonitrile and stored at −70° C. until further analysis by LC-MS/MS using an Applied Bio-systems API 4000 mass spectrometer.
The analysis of all samples by LC-MS/MS was performed as described above for the rat plasma samples in Example 37.

[3] = Pharmacokinetic study of pentoxifylline and Compound 435(S) in chimps after oral dosing (Example 39); format: in vivo; conditions: oral gavage 65 mg each of pentoxifylline and 435(S) in water, species named in label measured in plasma
Description: Pentoxifylline and Compound 435(S) were tested according to a protocol similar to the Oral Dosing protocol followed in Example 38, except that (a) the compounds were separately dissolved in water rather than saline; (b) the mixture of the two compounds was not sterile filtered; and (c) oral administration was achieved by oral gavage of a single 65 mg dose of each compound (13 mL total dosing solution).

[4] = Pharmacokinetic study in rats of (S)-M1 and Compound 435(S) after oral dosing (Example 37); format: in vivo, male Sprague-Dawley rats; conditions: oral gavage single 5 mg/kg dose, 1:1 mixture of (S)-M1 and 435(S), species named in label measured in plasma, −1D and −2D species included
Description: (§1) (S)-M1 and Compound 435(S) (a deuterated form of (S)-M1) were separately dissolved in saline at a concentration of 10 mg/mL. A 1:1 mixture of the two compounds was then prepared containing a final concentration of 5 mg/mL of each compound, which was used for intravenous administration. For oral administration the mixture was further diluted in saline to a final concentration of 1 mg/mL for each compound.
(§2) Three male Sprague-Dawley rats were used in each of the oral and intravenous studies. Animals were fasted overnight prior to administration of compounds. Intravenous administration was achieved by bolus injection of a single 5 mg/kg dose of the 1:1 combination into the cannulated jugular vein of the rats. Cannulation was achieved the day prior to dosing on rats that had been placed under anesthesia using ketamine (IM 30 mg/kg). Oral administration was achieved by oral gavage of a single 5 mg/kg dose. Blood samples (250 μL) were collected from the dosed rats at various times post-dosing (2 min, 5 min, 10 min, 20 min, 30 min, 1 hr, 2 hr, 3 hr, 4 hr, 5 hr, 6 hr) by retro-orbital sampling of the rats temporarily anesthetized with isoflurane. Blood samples were placed in tubes containing K2-EDTA and stored on ice until centrifuged. Within 30 minutes of collection, plasma was isolated by centrifugation. A 100-μL aliquot was removed, mixed with 200 μL of acetonitrile and stored at −20° C. until further analysis by LC-MS/MS using an Applied Bio-systems API 4000 mass spectrometer.
(§3) Samples were analyzed for the presence of the administered compound, the corresponding ketone (pentoxifylline and Compound 409) and the corresponding M5 metabolite. Samples (10 μL) were injected into a Zorbax SB-C8 (Rapid Resolution) column (2.1×30 mm, 3.5 μm). The initial mobile phase condition was 100% A (10 mM ammonium acetate in water) and 0% B (methanol) with a flow rate at 0.5 mL/min. Mobile phase B was allowed to reach 55% in 3 minutes and from 55% to 90% in 1 minute before ramping back to 0% in another minute. The overall run time was 5 minutes. For pentoxifylline and its M1 and M5 metabolites, the precursor/product ion pairs were set at m/z 281/193 (M1), m/z 279/181 (pentoxifylline), and m/z 267/221 (M5).
(§4) For Compound 435(S) and Compound 409 more than one ion pair was set up for to detect species that arose from loss of deuterium. […] This loss of deuterium appears to occur both in vivo and ex vivo by an unknown mechanism. The addition of acetonitrile to serum samples was used to stop any additional ex vivo deuterium loss prior to analysis. Typically, no more than 2 deuterium atoms were replaced by hydrogen. For Compound 435(S), there is a deuterium at the methinyl position which was lost upon oxidation to the keto-compound 409. Reduction of 409 to an M1 metabolite introduced a proton at the methinyl position. When serum from animals dosed with 435(S) were analyzed to quantitate administered compound and metabolites, compound species were included with one and two less side chain deuteriums in the total amounts (referred to hereinafter as the “−1D” and the “−2D” species). Thus, for Compound 435(S) and Compound 409 separate ion pairs were set up to detect the compound and its corresponding −1D and −2D species. For Compound 435(S) three ion pairs were detected: m/z 291/197, 290/197, and […]. For Compound 409 ion pairs of m/z 288/186, 287/186 and 286/186 were monitored. Inclusion of −1D and −2D species in the measurements of Compound 409 and Compound 435(S) more accurately quantitates the total active species and is reasonable based on what is known about the metabolism and activities of pentoxifylline and its M-1 metabolites. Increased plasma exposure to Compound 409 or any M-1 metabolites of 409 would be desirable. This includes the −1D and −2D species.
(§5) [drawing 78] which has no deuterium on its acid side chain, only one ion pair was used at m/z 271/225. The internal standard for the analysis was indiplon.

[5] = Pharmacokinetic study in rats of (S)-M1 and Compound 435(S) after intravenous dosing (Example 37); format: in vivo, male Sprague-Dawley rats; conditions: intravenous bolus single 5 mg/kg dose of 1:1 combination of (S)-M1 and 435(S), species named in label measured in plasma
Description: as §1, §2, §3, §4, §5

[6] = female, plasma, po, 65 mg, Table 17 iv): female chimp, 435(S) and 437(S), read-out: AUC0-12 Female
[7] = female, plasma, po, 65 mg, Table 17 iii): female chimp, 435(S) and 421(S), read-out: AUC0-12 Female
[8] = male, plasma, po, 65 mg, Table 17 iii): male chimp, 435(S) and 421(S), read-out: AUC0-12 Male

Compound: [2H]C([2H])([2H])[C@]([2H])(O)C([2H])([2H])CCCn1c(=O)c2c(ncn2C)n(C)c1=O [Compound 137(S), (S)-1-(4,4,5,6,6,6-d6-5-Hydroxyhexyl)-3,7-dimethyl-1H-purine-2,6(3H,7H)-dione]
AUC(0-t) ([1]; female, plasma, po, 65 mg, Table 17 ii): female chimp, 435(S) and 137(S), read-out: AUC0-12 Female): 163 ng·h/mL
AUC(0-t) ([1]; male, plasma, po, 65 mg, Table 17 ii): male chimp, 435(S) and 137(S), read-out: AUC0-12 Male): 63 ng·h/mL

Compound: [2H]C([2H])([2H])[C@H](O)C([2H])([2H])CCCn1c(=O)c2c(ncn2C)n(C)c1=O [Compound 121(S), S-1-(4,4,6,6,6-d5-5-Hydroxyhexyl)-3,7-dimethyl-1H-purine-2,6(3H,7H)-dione]
AUC(0-t) ([1]; female, plasma, po, 65 mg, Table 17 i): female chimp, 435(S) and 121(S), read-out: AUC0-12 Female): 105 ng·h/mL
AUC(0-t) ([1]; male, plasma, po, 65 mg, Table 17 i): male chimp, 435(S) and 121(S), read-out: AUC0-12 Male): 304 ng·h/mL

Compound: [2H]c1nc2c(c(=O)n(CCCC([2H])([2H])[C@@]([2H])(O)C([2H])([2H])[2H])c(=O)n2C)n1C [Compound 437(S), (S)-8-d1-1-(4,4,5,6,6,6-d6-5-Hydroxyhexyl)-3,7-dimethyl-1H-purine-2,6(3H,7H)-dione]
AUC(0-t) [1, 6]: 1180 ng·h/mL
AUC(0-t) ([1]; male, plasma, po, 65 mg, Table 17 iv): male chimp, 435(S) and 437(S), read-out: AUC0-12 Male): 757 ng·h/mL

Compound: pentoxifylline [reference compound]
Ave. AUC (in vivo): 448 ng·h/mL
Ave. Cmax (in vivo): 784 ng/mL

Compound: [2H]c1nc2c(c(=O)n(CCCC([2H])([2H])[C@@H](O)C([2H])([2H])[2H])c(=O)n2C)n1C [Compound 421(S), (S)-1-(4,4,6,6,6-d5-5-hydroxyhexyl)-3,7-dimethyl-8-d-1H-purine-2,6(3H,7H)-dione]
AUC(0-t) [1, 7]: 634 ng·h/mL
AUC(0-t) [1, 8]: 743 ng·h/mL

Further lines, with some results ahead:

AUC(0-t) [1, 7]: 350 ng·h/mL
AUC(0-t) [1, 6]: 416 ng·h/mL
AUC(0-t) [1, 8]: 447 ng·h/mL
Compound: [2H]c1nc2c(c(=O)n(CCCC(=O)O)c(=O)n2C)n1C [Deuterated M5 (M5b)]

AUC0-∞ [4]: 2985 ± 601 ng·h/mL
AUC0-12 Female ([1]; Table 17 i): female chimp, 435(S) and 121(S)): 653 ng·h/mL
AUC0-12 Male ([1]; Table 17 i): male chimp, 435(S) and 121(S)): 630 ng·h/mL
AUC0-12 Female ([1]; Table 17 ii): female chimp, 435(S) and 137(S)): 635 ng·h/mL
AUC0-12 Male ([1]; Table 17 ii): male chimp, 435(S) and 137(S)): 539 ng·h/mL
AUC0-∞ [5]: 1795 ± 521 ng·h/mL
Compound: Cn1cnc2c1c(=O)n(CCCC(=O)O)c(=O)n2C [Compound M5, reference compound]
AUC0-∞ Female [2]: 1868 ng·h/mL
AUC0-∞ Male [2]: 1456 ng·h/mL
AUC0-12 Female ([3]; female chimp): 811 ng·h/mL
AUC0-12 Male ([3]; male chimp): 817 ng·h/mL

Source: US8263601B2, “Deuterium substituted xanthine derivatives” (CoNCERT Pharmaceuticals, Inc., priority 2009, dated 2012)
